Results on 9 compounds are retold here after patent US20080194524A1, “Compounds For the Inhibition of Undesired Cell Proliferation and Use Thereof” (JERINI AG, priority 2003, published 2008).

Read-outs that look alike come from different tables or passages of the source. Where a SMILES comes first, the peptide text is derived from it. [ ]: non-standard residue; d: D form. The star is where a group is joined. 2Nal = N[C@@H](Cc1ccc2ccccc2c1)C(=O)O; Bta = N[C@@H](Cc1csc2ccccc12)C(=O)O; Benzyl(4-Cl) = Clc1ccc(C*)cc1; Pip = O=C(O)[C@@H]1CCCCN1; CH2PO3H2 = O=P(O)(O)C*; Mpa = O=C(O)CCS

For this test, the target named is hPin1 (Protein interacting with NIMA (-kinase)) (Homo sapiens, UniProt Q13526). Nature of the test: protease-coupled PPIase assay, hPin1. Format: biochemical.
Setting [1] is: hPin1 6 nM, substrate Ac-Ala-Ala-Ser(PO3H2)-Pro-Arg-pNA, trypsin, 35 mM HEPES pH 7.8, 6° C., read-out: Specificity of the inhibition with rotamases, Target T-1 (IC50 class).

Sequence of hPin1 (Protein interacting with NIMA (-kinase)) (Q13526 whole entry): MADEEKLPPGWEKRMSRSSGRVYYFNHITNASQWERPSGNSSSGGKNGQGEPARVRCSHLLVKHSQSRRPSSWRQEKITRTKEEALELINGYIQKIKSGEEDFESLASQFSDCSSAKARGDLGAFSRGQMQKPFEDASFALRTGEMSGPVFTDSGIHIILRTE

As to `CNC(=O)CC(SCP(=O)(O)O)C(=O)N1CCCC[C@H]1C(=O)N[C@@H](Cc1ccc2ccccc2c1)C(N)=O` (mixture of isomers) [Compound 69, {2-[2-(1-Carbamoyl-2-naphthalen-2-yl-ethylcarbamoyl)-piperidin-1-yl]-1-methylcarbamoylmethyl-2-oxo-ethylsulfanylmethyl}-phosphonic acid], under setting [1], the IC50 lay within 1 to 10 µM.

`COc1ccc(NC(=O)CC(SCP(=O)(O)O)C(=O)N2CCCC[C@H]2C(=O)N[C@@H](Cc2ccc3ccccc3c2)C(N)=O)cc1` (mixture of isomers) [Compound 70, {2-[2-(1-Carbamoyl-2-naphthalen-2-yl-ethylcarbamoyl)-piperidin-1-yl]-1-[(4-methoxy-phenyl-carbamoyl)-methyl]-2-oxo-ethylsulfanylmethyl}-phosphonicacid]: the IC50 under setting [1] was under 1 µM.

`CC(=O)N[C@@H](Cc1csc2ccccc12)C(=O)N[C@H](CSCP(=O)(O)O)C(=O)N1CCCC[C@H]1C(=O)N[C@@H](Cc1ccc2ccccc2c1)C(N)=O` (stereo in doubt) [Compound 3, {2-(2-Acetylamino-3-benzo[b]thiophen-3-yl-propionylamino)-3-[2-(1-carbamoyl-2-naphthalen-2-yl-ethylcarbamoyl)-piperidin-1-yl]-3-oxo-propylsulfanylmethyl}-phosphonic acid] registered an IC50 of under 1 µM.

On to `CC(=O)N1C(=O)SCC1C(=O)N[C@@H](CSCP(=O)(O)O)C(=O)N1CCCC[C@H]1C(=O)N[C@@H](Cc1ccc2ccccc2c1)C(N)=O` (stereo in doubt) [Compound 42, {2-[(3-Acetyl-2-oxo-thiazolidine-4-carbonyl)-amino]-3-[2-(1-carbamoyl-2-naphthalen-2-yl-ethylcarbamoyl)-piperidin-1-yl]-3-oxo-propylsulfanylmethyl}-phosphonic acid], for which the IC50 is under 1 µM.

As to `CC(SCP(=O)(O)O)C(=O)N1CCCC[C@H]1C(=O)N[C@@H](Cc1ccc2ccccc2c1)C(N)=O` (stereo in doubt) [Compound 65, {2-[2-(1-Carbamoyl-2-naphthalen-2-yl-ethylcarbamoyl)-piperidin-1-yl]-1-methyl-2-oxo-ethylsulfanylmethyl}-phosphonicacid], under setting [1], the IC50 lay within 1 to 10 µM.

The compound `CC(=O)N[C@@H](Cc1csc2ccccc12)C(=O)N[C@@H](COCP(=O)(O)O)C(=O)N1CCCC[C@H]1C(=O)N[C@@H](Cc1ccc2ccccc2c1)C(N)=O` [Compound 1, {2-(2-Acetylamino-3-benzo[b]thiophen-3-yl-propionylamino)-3-[2-(1-carbamoyl-2-naphthalen-2-yl-ethylcarbamoyl)-piperidin-1-yl]-3-oxo-propoxymethyl}-phosphonicacid] (Ac-[Bta]S(CH2PO3H2)[Pip][2Nal]-NH2) displayed an IC50 of 1 to 10 µM.

The compound `CC(=O)N[C@@H](Cc1csc2ccccc12)C(=O)N[C@@H](CSCP(=O)(O)O)C(=O)N1CCCC[C@H]1C(=O)N[C@@H](Cc1ccc2ccccc2c1)C(N)=O` [Compound 2, {2-(2-Acetylamino-3-benzo[b]thiophen-3-yl-propionylamino)-3-[2-(1-carbamoyl-2-naphthalen-2-yl-ethylcarbamoyl)-piperidin-1-yl]-3-oxo-propylsulfanylmethyl}-phosphonic acid] showed an IC50 of under 1 µM.

Consider `NC(=O)[C@H](Cc1ccc2ccccc2c1)NC(=O)[C@@H]1CCCCN1C(=O)[C@H](COCP(=O)(O)O)NC(=O)OCC1c2ccccc2-c2ccccc21` [Compound 4, [3-[2-(1-Carbamoyl-2-naphthalen-2-yl-ethylcarbamoyl)-piperidin-1-yl]-2-(9H-fluoren-9-ylmethoxycarbonylamino)-3-oxo-propoxymethyl]-phosphonic acid], for which the IC50 under setting [1] fell in the range of 1 to 10 µM.

Turning to `NC(=O)[C@H](Cc1ccc2ccccc2c1)NC(=O)[C@@H]1CCCCN1C(=O)[C@H](CSCP(=O)(O)O)NC(=O)CCSCc1ccc(Cl)cc1` [Compound 5, {3-[2-(1-Carbamoyl-2-naphthalen-2-yl-ethylcarbamoyl)-piperidin-1-yl]-2-[3-(4-chloro-benzylsulfanyl)-propionylamino]-3-oxo-propylsulfanylmethyl}-phosphonicacid] ([Mpa](Benzyl(4-Cl))C(CH2PO3H2)[Pip][2Nal]-NH2), under setting [1], the IC50 is under 1 µM.
